This passage reports IC50, remaining activity and NAM designation results from patent US10538491B2, “4,5-substituted picolinamide and picolinonitrile metabotropic glutamate receptor 2 negative allosteric modulators” (Vanderbilt University, priority 2015, dated 2020).

This assay deals with rat mGlu2 (Rattus norvegicus (Rat), UniProt P31421). Put plainly: mGlu2 Ca2+ flux assay. The class given is cell-based. The note with it: for IC50: Gα15 HEK293 cells stably expressing rat mGlu2, glutamate EC80, >10,000 = no plateau, >30,000 = no measurable activity; for remaining activity at 30 µM: amplitude of response in the presence of 30 μM test compound as percentage of maximal response to glutamate, read-out: rat mGlu2 Glu max. As to the method:
Gα15 HEK293 cells stably expressing rat mGlu2 were plated in black-walled, clear-bottomed, poly-D-lysine coated 384-well plates in 20 μL of assay medium (DMEM containing 10% dialyzed FBS, 20 mM HEPES, and 1 mM sodium pyruvate) at a density of 12K cells/well. The cells were grown overnight at 37° C. in the presence of 5% CO2. The next day, medium was removed and the cells incubated with 20 μL of 2.3 μM Fluo-4, AM prepared as a 2.3 mM stock in DMSO and mixed in a 1:1 ratio with 10% (w/v) pluronic acid F-127 and diluted in assay buffer (Hank's balanced salt solution, 20 mM HEPES, and 2.5 mM probenecid) for 45 minutes at 37° C. Dye was removed, 20 μL of assay buffer was added, and the plate was incubated for 5 minutes at room temperature.
Ca^2+ flux was measured using the Functional Drug Screening System (FDSS7000, Hamamatsu, Japan). After establishment of a fluorescence baseline for about 3 seconds, the compounds of the present invention were added to the cells, and the response in cells was measured. 2.3 minutes later an EC20 concentration of the mGlu2 receptor agonist glutamate was added to the cells, and the response of the cells was measured for 1.9 minutes; an EC80 concentration of agonist was added and readings taken for an additional 1.7 minutes. All test compounds were dissolved and diluted to a concentration of 10 mM in 100% DMSO. Compounds were then serially diluted 1:3 in DMSO into 10 point concentration response curves, transferred to daughter plates, and further diluted into assay buffer to a 2× stock. Calcium fluorescence measures were recorded as fold over basal fluorescence; raw data was then normalized to the maximal response to glutamate. Antagonism of the agonist response of the mGlu2 receptor in the present invention was observed as a decrease in response to nearly maximal concentrations of glutamate in the presence of compound compared to the response to glutamate in the absence of compound.
The raw data file containing all time points was used as the data source in the analysis template. This was saved by the FDSS as a tab-delimited text file. Data were normalized using a static ratio function (F/F0) for each measurement of the total 360 values per well divided by each well's initial value. Data were then reduced to peak amplitudes (Max−Initial Min) using a time range that starts approximately 3 seconds prior to the glutamate EC80 addition and continues for approximately 90 seconds. This is sufficient time to capture the peak amplitude of the cellular calcium response. Individual amplitudes were expressed as % ECMax by multiplying each amplitude by 100 and then dividing the product by the mean of the amplitudes derived from the glutamate ECMax-treated wells. IC50 values for test compounds were generated by fitting the normalized values versus the log of the test compound concentration (in mol/L) using a 4 parameter logistic equation where none of the parameters were fixed. Each of the three values collected at each concentration of test compound were weighted evenly.
For NAMs, potency (IC50) and maximum response (% Glu Max), i.e. the amplitude of response in the presence of 30 μM test compound as a percentage of the maximal response to glutamate, are reported. […] Compounds with no measurable activity are designated as “>30,000 nM” since the top concentration of compound tested in the assay is 30 μM.
(In general: Calcium assays in cells follow changes in intracellular calcium, usually with a dye or a luminescent sensor.)

Chain of rat mGlu2 (P31421 19-872): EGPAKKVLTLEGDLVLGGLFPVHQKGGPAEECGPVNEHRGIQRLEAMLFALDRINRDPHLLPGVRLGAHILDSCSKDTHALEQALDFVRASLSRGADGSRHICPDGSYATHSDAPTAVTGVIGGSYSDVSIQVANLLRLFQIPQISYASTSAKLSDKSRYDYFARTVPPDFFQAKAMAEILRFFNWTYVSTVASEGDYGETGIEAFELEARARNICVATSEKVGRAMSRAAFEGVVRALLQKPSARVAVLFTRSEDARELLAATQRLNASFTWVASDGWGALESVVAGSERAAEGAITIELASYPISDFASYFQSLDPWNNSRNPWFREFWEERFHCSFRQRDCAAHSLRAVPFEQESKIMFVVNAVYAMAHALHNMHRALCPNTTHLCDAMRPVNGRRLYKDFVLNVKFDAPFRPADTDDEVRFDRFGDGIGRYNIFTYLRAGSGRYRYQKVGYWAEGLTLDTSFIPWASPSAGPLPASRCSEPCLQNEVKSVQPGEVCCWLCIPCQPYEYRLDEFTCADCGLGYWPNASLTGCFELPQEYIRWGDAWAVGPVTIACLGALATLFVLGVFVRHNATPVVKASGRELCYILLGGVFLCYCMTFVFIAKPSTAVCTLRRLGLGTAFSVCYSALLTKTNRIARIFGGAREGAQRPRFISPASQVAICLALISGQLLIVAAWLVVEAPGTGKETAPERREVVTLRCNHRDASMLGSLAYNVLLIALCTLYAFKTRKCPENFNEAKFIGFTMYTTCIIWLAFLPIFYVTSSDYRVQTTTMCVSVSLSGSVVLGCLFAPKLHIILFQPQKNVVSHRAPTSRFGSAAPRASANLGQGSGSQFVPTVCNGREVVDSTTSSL

In the case of `COc1ccc(-c2cc(C(N)=O)ncc2OCc2cc(F)cc(F)c2)c(F)c1` [Compound 31, 5-((3,5-difluorobenzyl)oxy)-4-(2-fluoro-4-methoxyphenyl)picolinamide], half-maximal inhibition (IC50) was put at 395 nM and the remaining activity at 30 µM worked out at 1.46%. The NAM designation result (concentration-dependent decrease in the glutamate EC80 response) is on record as “(Partial NAM)”.

Turning to `NC(=O)c1cc(-c2ccc(C(F)(F)F)nc2)c(OCc2cc(F)cc(F)c2)cn1` [Compound 32, 5′-((3,5-difluorobenzyl)oxy)-6-(trifluoromethyl)[3,4′-bipyridine]-2′-carboxamide], the 50% inhibitory concentration (IC50) was over 10000 nM and the remaining activity at 30 µM amounted to 35.1%.

Turning to `NC(=O)c1cc(-c2ccc(F)cc2)c(OCc2ccc(Br)cc2)cn1` [Compound 33, 5-((4-bromobenzyl)oxy)-4-(4-fluorophenyl)picolinamide], it took 1690 nM to reach half-maximal inhibition (IC50) and the remaining activity at 30 µM was found to be 2.29%.

For the compound `NC(=O)c1cc(-c2ccc(F)cc2)c(OCc2cccc(Br)c2)cn1` [Compound 34, 5-((3-bromobenzyl)oxy)-4-(4-fluorophenyl)picolinamide], it took 1590 nM to reach half-maximal inhibition (IC50) and the remaining activity at 30 µM was determined as 10.1%.

With `NC(=O)c1cc(-c2ccc(F)cc2)c(OCc2ccccc2Br)cn1` [Compound 35, 5-((2-bromobenzyl)oxy)-4-(4-fluorophenyl)picolinamide], the concentration for half-maximal inhibition (IC50) was found to be 1110 nM and the remaining activity at 30 µM is 1.55%.

For the compound `NC(=O)c1cc(-c2ccc(F)cc2)c(OCc2cc(Br)ccc2F)cn1` [Compound 36, 5-((5-bromo-2-fluorobenzyl)oxy)-4-(4-fluorophenyl)picolinamide], the half-maximal inhibitory concentration (IC50) stood at 650 nM and the remaining activity at 30 µM is 3.82%.

Regarding `NC(=O)c1cc(-c2ccc(F)cc2)c(OCc2cc(F)cc(Br)c2)cn1` [Compound 37, 5-((3-bromo-5-fluorobenzyl)oxy)-4-(4-fluorophenyl)picolinamide], the concentration for half-maximal inhibition (IC50) was found to be 1470 nM and the remaining activity at 30 µM stood at 3.54%.

For the compound `NC(=O)c1cc(-c2ccc(F)cc2)c(OCc2cccnc2)cn1` [Compound 38, 4-(4-fluorophenyl)-5-(pyridin-3-ylmethoxy)picolinamide], the concentration for half-maximal inhibition (IC50) was 507 ± 123 nM and the remaining activity at 30 µM came out at 5.84 ± 1.16%.

As to `COc1ccc(-c2cc(C(N)=O)ncc2OCc2cccnc2)c(F)c1` [Compound 39, 4-(2-fluoro-4-methoxyphenyl)-5-(pyridin-3-ylmethoxy)picolinamide], the concentration for half-maximal inhibition (IC50) is 39 nM and the remaining activity at 30 µM was 1.36%.

Regarding `NC(=O)c1cc(-c2ccc(C(F)(F)F)nc2)c(OCc2cccnc2)cn1` [Compound 40, 5′-(pyridin-3-ylmethoxy)-6-(trifluoromethyl)[3,4′-bipyridine]-2′-carboxamide], the IC50 was over 30000 nM.

Consider `Cc1ccc(COc2cnc(C(N)=O)cc2-c2ccc(F)cc2)cn1` [Compound 41, 4-(4-fluorophenyl)-5-((6-methylpyridin-3-yl)methoxy)picolinamide], for which 343 nM corresponded to half-maximal inhibition (IC50) and the remaining activity at 30 µM was 1.59%.

Consider `COc1ccc(COc2cnc(C(N)=O)cc2-c2ccc(F)cc2)cn1` [Compound 42, 4-(4-fluorophenyl)-5-((6-methoxypyridin-3-yl)methoxy)picolinamide], for which inhibition was half-maximal at 266 nM (IC50) and the remaining activity at 30 µM was determined as 2.2%.

Regarding `NC(=O)c1cc(-c2ccc(F)cc2)c(OCc2ccc(C(F)(F)F)nc2)cn1` [Compound 43, 4-(4-fluorophenyl)-5-((6-(trifluoromethyl)pyridin-3-yl)methoxy)picolinamide], the 50% inhibitory concentration (IC50) was found to be 717 nM and the remaining activity at 30 µM amounted to 0.74%.

For the compound `NC(=O)c1cc(-c2ccc(F)cc2)c(OCc2ccncc2)cn1` [Compound 44, 4-(4-fluorophenyl)-5-(pyridin-4-ylmethoxy)picolinamide], the IC50 is 239 nM and the remaining activity at 30 µM came out at 0.42%.

For `Cc1cc(COc2cnc(C(N)=O)cc2-c2ccc(F)cc2)ccn1` [Compound 45, 4-(4-fluorophenyl)-5-((2-methylpyridin-4-yl)methoxy)picolinamide], half-maximal inhibition (IC50) was put at 195 nM and the remaining activity at 30 µM turned out to be 1.17%.

Consider `COc1cc(COc2cnc(C(N)=O)cc2-c2ccc(F)cc2)ccn1` [Compound 46, 4-(4-fluorophenyl)-5-((2-methoxypyridin-4-yl)methoxy)picolinamide], for which half-maximal inhibition (IC50) was put at 204 nM and the remaining activity at 30 µM was determined as 2.17%.

Turning to `CC(Oc1cnc(C(N)=O)cc1-c1ccc(F)cc1)c1cccnc1` (centres unmarked) [Compound 47, 4-(4-fluorophenyl)-5-(1-(pyridin-3-yl)ethoxy)picolinamide], the half-inhibitory concentration (IC50) came to 2710 nM and the remaining activity at 30 µM turned out to be 0.41%.

Regarding `CC(Oc1cnc(C(N)=O)cc1-c1ccc(F)cc1)c1ccncc1` (centres unmarked) [Compound 48, 4-(4-fluorophenyl)-5-(1-(pyridin-4-yl)ethoxy)picolinamide], the 50% inhibitory concentration (IC50) was 504 nM and the remaining activity at 30 µM is 1.4%.

Consider `NC(=O)c1cc(-c2ccc(F)cc2)c(OCc2cccnn2)cn1` [Compound 49, 4-(4-fluorophenyl)-5-(pyridazin-3-ylmethoxy)picolinamide], for which inhibition was half-maximal at 1470 nM (IC50) and the remaining activity at 30 µM was -0.08%.

Consider `NC(=O)c1cc(-c2ccc(F)cc2)c(OCc2ccc3nccn3c2)cn1` [Compound 50, 4-(4-fluorophenyl)-5-(imidazo[1,2-a]pyridin-6-ylmethoxy)picolinamide], for which the half-maximal inhibitory concentration (IC50) was 129 nM and the remaining activity at 30 µM amounted to 1.41%.

With `NC(=O)c1cc(-c2ccc(F)cc2)c(OCc2cncs2)cn1` [Compound 51, 4-(4-fluorophenyl)-5-(thiazol-5-ylmethoxy)picolinamide], half-maximal inhibition (IC50) was put at 263 nM and the remaining activity at 30 µM came out at 1.01%.

Consider `Cn1ccc(COc2cnc(C(N)=O)cc2-c2ccc(F)cc2)n1` [Compound 52, 4-(4-fluorophenyl)-5-((1-methyl-1H-pyrazol-3-yl)methoxy)picolinamide], for which the IC50 is 66 nM and the remaining activity at 30 µM worked out at 0.93%.

In the case of `Cn1cc(COc2cnc(C(N)=O)cc2-c2ccc(F)cc2)cn1` [Compound 53, 4-(4-fluorophenyl)-5-((1-methyl-1H-pyrazol-4-yl)methoxy)picolinamide], the midpoint of inhibition, the IC50, lay at 1000 nM and the remaining activity at 30 µM was -0.46%.

`NC(=O)c1cc(-c2ccc(F)cc2)c(OCCOc2cccnc2)cn1` [Compound 54, 4-(4-fluorophenyl)-5-(2-(pyridin-3-yloxy)ethoxy)picolinamide]: the midpoint of inhibition, the IC50, lay at 1370 nM and the remaining activity at 30 µM is 1.35%.

On to `CN(CCOc1cnc(C(N)=O)cc1-c1ccc(F)cc1)c1ccnc(C(F)(F)F)c1` [Compound 55, 4-(4-fluorophenyl)-5-(2-(methyl(2-(trifluoromethyl)pyridin-4-yl)amino)ethoxy)picolinamide], for which the IC50 stood at 1580 nM and the remaining activity at 30 µM was 4.02%.

With `NC(=O)c1cc(-c2ccc(F)cc2)c(OC2CCN(c3ccnc(C(F)(F)F)c3)CC2)cn1` [Compound 56, 4-(4-fluorophenyl)-5-((1-(2-(trifluoromethyl)pyridin-4-yl)piperidin-4-yl)oxy)picolinamide], the IC50 was determined as 4190 nM and the remaining activity at 30 µM was 4.5%.

As to `NC(=O)c1cc(-c2ccc(F)cc2)c(OC2CCN(c3ccnc(C(F)(F)F)c3)C2)cn1` (centres unmarked) [Compound 57, 4-(4-fluorophenyl)-5-((1-(2-(trifluoromethyl)pyridin-4-yl)pyrrolidin-3-yl)oxy)picolinamide], the half-inhibitory concentration (IC50) came out at 2120 nM and the remaining activity at 30 µM was found to be 2.39%.

In the case of `NC(=O)c1cc(-c2ccc(F)cc2)c(OC2CN(c3ccnc(C(F)(F)F)c3)C2)cn1` [Compound 58, 4-(4-fluorophenyl)-5-((1-(2-(trifluoromethyl)pyridin-4-yl)azetidin-3-yl)oxy)picolinamide], 4140 nM corresponded to half-maximal inhibition (IC50) and the remaining activity at 30 µM stood at 4.3%.

For orientation: IC50 means the point on the concentration scale where inhibition reaches its midpoint.
